We go through three compounds from patent US11395829B2, “Inhibitors of metallo-beta-lactamases produced by multidrug-resistant bacteria” (MYONGJI UNIVERSITY INDUSTRY AND ACADEMIA COOPERATION …, priority 2019, dated 2022).

Read-outs that look alike come from different tables or passages of the source.

Common to all, as to type: biochemical
Assay [1] has as its target IMP-1 (Serratia marcescens, UniProt P52699). Put plainly: IMP-1 inhibition assay with nitrocefin as substrate. Particulars: Subclass B1 MBL, enzyme 891 nM, 100 μM nitrocefin, 5 minute pre-incubation. From the text:
(§1) The blaNDM-1 gene (GenBank ID: FN396876) from K. pneumoniae clinical isolate, blaIMP-1 gene (GenBank ID: S71932) from Acinetobacter baumannii clinical isolate, and blaVIM-2 gene (GenBank ID: AF191564) from Citrobacter freundii clinical isolate were cloned after PCR amplification with primer pairs (Table 3) and then sequenced. Those three clinical isolates were collected from a university hospital in the Republic of Korea. Three DNA templates encoding blaGIM-1 gene (GenBank ID: AJ620678), blacphA gene (GenBank ID: X57102), and blaGOB-1 gene (GenBank ID: AF090141), which are codon optimized for E. coli, were synthesized and purchased from IDT (Integrated DNA Technologies, Coralville, Iowa, USA). The DNA templates were amplified by PCR using suitable primer pairs (Table 3). The amplified DNA and pET-30a(+) vector (Novagen, Madison, Wis., USA) were double-digested with NdeI and XhoI, with digested DNA then ligated into the digested vector. After verifying the DNA sequences, the plasmids, pET-30a(+)/His6-blaNDM-1, pET-30a(+)/His6-blaIMP-1, pET-30a(+)/His6-blaVIM-2, pET-30a(+)/His6-blaGIM-1, pET-30a(+)/His6-blacphA, and pET-30a(+)/His6-blaGOB-1 were individually transformed into E. coli BL21 (DE3) cells. Each of the histidine-tagged proteins, NDM-1, IMP-1, VIM-2, GIM-1, CphA, and GOB-1 were prepared as previously described (Park, et al., J. Glob. Antimicrob. Resist., 14, 302-305 (2018)).
(§2) To investigate the inhibitory effects of novel compounds (DCPBA, ACP-DCPBA, and CHP-DCPBA) against four clinically-important subclass B1 MBLs (NDM-1, IMP-1, VIM-2, and GIM-1), subclass B2 MBL (CphA), and subclass B3 MBL (GOB-1), the IC50 values for them were determined (Table 4). Compounds (DCPBA, ACP-DCPBA, and CHP-DCPBA) were dissolved in 100% DMSO at 10 mM. Activities of MBLs were determined by monitoring the change of absorbance at 482 nm. Up to 5% DMSO, no influence on the enzyme activities of MBLs was observed. […] Data were evaluated using Microsoft Excel. Reaction progress at every concentration of DCPBA (ACP-DCPBA or CHP-DCPBA) was measured in triplicates.

The target in assay [2] is VIM-2 (Pseudomonas aeruginosa, UniProt Q9K2N0). Kind of assay: VIM-2 inhibition assay with nitrocefin as substrate.
Description: as §1, §2

For assay [3], the target named is GOB-1 (Elizabethkingia meningoseptica, UniProt Q9RB00). Kind of assay: GOB-1 inhibition assay with nitrocefin as substrate. Particulars: Subclass B3 MBL, enzyme 2.69 μM, 100 μM nitrocefin, 5 minute pre-incubation.
Chain of GOB-1 (Q9RB00 entry or part of it): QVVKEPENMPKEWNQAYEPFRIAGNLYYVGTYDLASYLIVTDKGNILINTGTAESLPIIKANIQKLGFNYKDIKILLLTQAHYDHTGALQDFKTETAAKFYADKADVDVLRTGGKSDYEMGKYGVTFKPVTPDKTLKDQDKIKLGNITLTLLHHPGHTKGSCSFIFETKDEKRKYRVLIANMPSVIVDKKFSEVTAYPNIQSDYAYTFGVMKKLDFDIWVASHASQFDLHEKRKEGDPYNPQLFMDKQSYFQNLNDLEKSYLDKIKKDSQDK
Description: as §1, §2

Assay [4] concerns the target GIM-1 (Pseudomonas aeruginosa, UniProt Q704V1). Put plainly: GIM-1 inhibition assay with nitrocefin as substrate.
Description: as §1, §2

Assay [5] deals with NDM-1 (Klebsiella pneumoniae, UniProt C7C422). Kind of assay: NDM-1 inhibition assay with nitrocefin as substrate. The protocol:
The screened seven compounds were dissolved in 100% DMSO at 10 mM. More diluted stocks were prepared as necessary. NDM-1 activity was determined by monitoring the change of absorbance at 482 nm using the characteristic molecular extinction coefficient (Δε482=15,900 M^−1 cm^−1) of nitrocefin (NCF) (Oxoid, Hampshire, UK) by a Shimazu UV-1650PC spectrophotometer. Up to 5% DMSO, no influence on the enzyme activities of MBLs was observed. The assays were conducted in 50 mM MES (pH 7.0) containing an enzyme (263 nM), 100 μM ZnCl2, and 100 μg/mL bovine serum albumin. After 5 min of pre-incubation of the purified enzyme and inhibitor at 30° C., the enzymatic reaction was started by adding nitrocefin (100 μM). Residual velocities were determined after 5 minutes. The first 120 s of each reaction was used to measure initial rates. Data were evaluated using Microsoft Excel. Concentration-dependent inhibition of NDM-1 was measured using different concentrations of seven compounds resulting from two-fold dilution series. Reaction progress at every concentration of seven compounds was measured in triplicates. IC50 values were calculated using 4-parameter log fits using XL Fit curve fitting software (www.idbs.com) for Excel using the following equation: […]
where y is the remaining enzyme activity (in %) and x is the corresponding concentration. The fitted IC50 parameter is defined as the concentration giving a response half way between the fitted top (B) and bottom (A) of the curve. […]
To investigate the inhibitory effects of novel compounds (DCPBA, ACP-DCPBA, and CHP-DCPBA) against four clinically-important subclass B1 MBLs (NDM-1, IMP-1, VIM-2, and GIM-1), subclass B2 MBL (CphA), and subclass B3 MBL (GOB-1), the IC50 values for them were determined (Table 4). […] Activities of MBLs were determined by monitoring the change of absorbance at 482 nm. […] Data were evaluated using Microsoft Excel. Reaction progress at every concentration of DCPBA (ACP-DCPBA or CHP-DCPBA) was measured in triplicates.

Assay [6] concerns the target CphA (Aeromonas hydrophila, UniProt P26918). Kind of assay: CphA inhibition assay with nitrocefin as substrate. The conditions noted are these: for IC50 of CphA relative to that for DCPBA: fold lower than DCPBA.
Description: as §1
To investigate the inhibitory effects of novel compounds (DCPBA, ACP-DCPBA, and CHP-DCPBA) against four clinically-important subclass B1 MBLs (NDM-1, IMP-1, VIM-2, and GIM-1), subclass B2 MBL (CphA), and subclass B3 MBL (GOB-1), the IC50 values for them were determined (Table 4). Compounds (DCPBA, ACP-DCPBA, and CHP-DCPBA) were dissolved in 100% DMSO at 10 mM. Activities of MBLs were determined by monitoring the change of absorbance at 482 nm. Up to 5% DMSO, no influence on the enzyme activities of MBLs was observed. Each enzyme (NDM-1, 263 nM; IMP-1, 891 nM; VIM-2, 81 nM; GIM-1, 662 nM; CphA, 157 nM; GOB-1, 2.69 μM) was mixed with 100 μM nitrocefin after a 5 minute pre-incubation with compounds (DCPBA, ACP-DCPBA, and CHP-DCPBA). The first 120 s of each reaction was used to measure initial rates. Data were evaluated using Microsoft Excel. Reaction progress at every concentration of DCPBA (ACP-DCPBA or CHP-DCPBA) was measured in triplicates.

The mark [7] stands for this setting: Subclass B1 MBL, enzyme 263 nM, 100 μM nitrocefin, 5 minute pre-incubation, read-out: IC50 NDM-1.

Chain of GIM-1 (Q704V1 19-250): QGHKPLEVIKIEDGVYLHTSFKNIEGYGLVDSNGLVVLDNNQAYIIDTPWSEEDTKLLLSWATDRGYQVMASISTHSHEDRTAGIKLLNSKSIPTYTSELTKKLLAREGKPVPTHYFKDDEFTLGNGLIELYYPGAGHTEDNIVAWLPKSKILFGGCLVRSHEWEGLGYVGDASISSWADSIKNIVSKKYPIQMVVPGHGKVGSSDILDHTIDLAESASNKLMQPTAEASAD
Chain of CphA (P26918 28-254): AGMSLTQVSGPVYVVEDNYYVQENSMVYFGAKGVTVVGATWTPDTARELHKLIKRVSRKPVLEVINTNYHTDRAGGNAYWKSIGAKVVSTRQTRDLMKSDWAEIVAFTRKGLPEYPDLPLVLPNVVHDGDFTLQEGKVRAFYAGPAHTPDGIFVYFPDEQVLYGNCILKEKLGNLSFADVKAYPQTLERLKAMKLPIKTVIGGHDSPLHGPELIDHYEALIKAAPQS
Chain of NDM-1 (C7C422 30-270 limits assumed, looked up): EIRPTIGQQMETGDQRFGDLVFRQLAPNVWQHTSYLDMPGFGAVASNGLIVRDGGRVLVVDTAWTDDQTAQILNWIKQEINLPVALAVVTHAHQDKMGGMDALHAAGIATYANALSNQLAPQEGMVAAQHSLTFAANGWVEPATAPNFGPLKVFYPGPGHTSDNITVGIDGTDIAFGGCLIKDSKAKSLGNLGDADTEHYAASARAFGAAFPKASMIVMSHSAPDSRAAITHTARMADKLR
Chain of IMP-1 (P52699 21-246 limits assumed): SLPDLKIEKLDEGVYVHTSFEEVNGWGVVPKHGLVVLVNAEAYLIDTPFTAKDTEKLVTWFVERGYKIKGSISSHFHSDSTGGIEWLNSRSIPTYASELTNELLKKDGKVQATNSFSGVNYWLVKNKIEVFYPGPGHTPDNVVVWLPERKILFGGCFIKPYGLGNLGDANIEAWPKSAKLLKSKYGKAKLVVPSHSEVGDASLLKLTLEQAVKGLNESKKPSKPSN

For the compound `Nc1ccc(Oc2c(Cl)cc(B(O)O)cc2Cl)cc1Cl` [ACP-DCPBA, (4-(4-amino-3-chlorophenoxy)-3,5-dichlorophenyl)boronic Acid], the IC50 turned out to be 738.41 ± 0.01 µM in assay [1]; 22.78 ± 0.01 µM in assay [2]; 790.24 ± 0.02 µM in assay [3]; 144.64 ± 0.01 µM in assay [4]; 78.78 ± 0.01 µM in assay [5] (setting [7]); 90.19 ± 0.01 µM in assay [6]. Also, the “IC50 of CphA relative to that for DCPBA” value in assay [6] is given as “six-fold lower”.

On to `OB(O)c1cc(Cl)c(Oc2ccc(Cl)cc2O)c(Cl)c1` [CHP-DCPBA, (3,5-dichloro-4-(4-chloro-2-hydroxyphenoxy)phenyl)boronic acid], for which the IC50 was determined as 468.3 ± 0.01 µM in assay [1]; 15.15 ± 0.01 µM in assay [2]; 468.5 ± 0.01 µM in assay [3]; 81.35 ± 0.03 µM in assay [4] (Subclass B1 MBL, enzyme 662 nM, 100 μM nitrocefin, 5 minute pre-incubation, read-out: IC50 GIM-1); 37.77 ± 0.01 µM in assay [5] (setting [7]); 80.81 ± 0.01 µM in assay [6] (Subclass B2 MBL, enzyme 157 nM, 100 μM nitrocefin, 5 minute pre-incubation, read-out: IC50 CphA). The “IC50 of CphA relative to that for DCPBA” value in assay [6] was “six-fold lower”.

Take `OB(O)c1cc(Cl)cc(Cl)c1` [Compound 1, 3,5-Dichlorophenylboronic Acid]: the half-maximal inhibitory concentration (IC50) stood at 738.88 ± 0.01 µM in assay [1]; 27.33 ± 0.01 µM in assay [2]; 798.9 ± 0.02 µM in assay [3]; 144.64 ± 0.01 µM in assay [4]; 79.9 µM in assay [5] (NDM-1 263 nM, nitrocefin 100 μM, 50 mM MES pH 7.0, 5 min pre-incubation at 30° C., read-out: IC50 values on NDM-1 of the screened compounds); 530.87 ± 0.02 µM in assay [6].

Broadly, the IC50 is the concentration at which inhibition is half-maximal.
